Results reported in patent publication US8889667B2 (Agios Pharmaceuticals, Inc, priority 2010, dated 2014).

What follows are compounds tested against PKM2 (Homo sapiens, UniProt P14618) (assay: PKM2 Assay (activation, LDH-coupled, absorbance at 340 nm)). Details: Table 4.
Type: biochemical
Method: • PKM2 stock enzyme solution was diluted in Reaction Buffer • 2 μL of compound was added into each well first, and then 180 μL of the Reaction Mix was added. • Reaction mixture with compound (without ADP) was incubated for 30 minutes at 4° C. • Plates were re-equilibrated to room temperature prior to adding 20 μL ADP to initiate the reaction. • Reaction progress was measured as changes in absorbance at 340 nm wavelength at room temperature (25° C.) Reaction Mix: PKM2 (50 ng/well), ADP (0.7 mM), PEP (0.15 mM), NADH (180 μM), LDH (2 units) in Reaction Buffer Reaction Buffer: 100 mM KCl, 50 mM Tris pH 7.5, 5 mM MgCl2, 1 mM DTT, 0.03% BSA.
Representative compounds of the invention were tested for their ability to activate PKM2 using the above assay. For simplicity, the activation activity of these compounds is represented as an AC50 in Tables 4 and 5 and throughout the application. […] “B” refers to an activator of PKM2 with an EC50 between 100 nM and 500 nM. “C” refers to an activator of PKM2 with an EC50 between 500 nM and 1000 nM. “D” refers to an activator of PKM2 with an EC50 between 1 μM and 20 μM. “E” refers a compound whose activation of PKM2 was not measurable. “N/C” refers to AC50 data not available.

PKM2, sequence (P14618 whole entry): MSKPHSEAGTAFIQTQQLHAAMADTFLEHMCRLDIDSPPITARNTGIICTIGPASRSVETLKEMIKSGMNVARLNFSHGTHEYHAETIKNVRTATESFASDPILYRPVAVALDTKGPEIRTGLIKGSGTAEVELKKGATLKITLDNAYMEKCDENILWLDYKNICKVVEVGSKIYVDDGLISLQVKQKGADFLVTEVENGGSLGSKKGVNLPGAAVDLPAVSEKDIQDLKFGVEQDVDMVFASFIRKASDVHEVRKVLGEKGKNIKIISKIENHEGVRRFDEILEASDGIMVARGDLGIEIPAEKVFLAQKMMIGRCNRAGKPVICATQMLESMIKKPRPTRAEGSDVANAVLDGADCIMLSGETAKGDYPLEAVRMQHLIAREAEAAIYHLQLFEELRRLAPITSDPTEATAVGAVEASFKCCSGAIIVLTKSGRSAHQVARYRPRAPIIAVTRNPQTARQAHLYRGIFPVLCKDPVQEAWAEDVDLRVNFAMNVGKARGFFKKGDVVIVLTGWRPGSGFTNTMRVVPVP

SMILES | AC50 [nM]
CC(c1cc(F)cc(F)c1)N1CCN(C(=O)c2ccc(NS(=O)(=O)c3cccc4cccnc34)cc2)[C@H](C)C1 (stereo partly drawn) [Compound 135, N-(4-((2R)-4-(1-(3,5-difluorophenyl)ethyl)-2-methylpiperazine-1-carbonyl)phenyl)quinoline-8-sulfonamide] | < 100
CC[C@H]1CN(Cc2cc(F)cc(F)c2)CCN1C(=O)c1ccc(NS(=O)(=O)c2cccc3cccnc23)cc1 [Compound 136, (S)—N-(4-(4-(3,5-difluorobenzyl)-2-ethylpiperazine-1-carbonyl)phenyl)quinoline-8-sulfonamide] | 100 to 500
C[C@H]1CN(Cc2cc(F)cc(F)c2F)CCN1C(=O)c1ccc(NS(=O)(=O)c2cccc3cccnc23)cc1 [Compound 137, (S)—N-(4-(2-methyl-4-(2,3,5-trifluorobenzyl)piperazine-1-carbonyl)phenyl)quinoline-8-sulfonamide] | < 100
C[C@H]1CN(Cc2ccc(Cl)c(F)c2)CCN1C(=O)c1ccc(NS(=O)(=O)c2cccc3cccnc23)cc1 [Compound 138, (S)—N-(4-(4-(4-chloro-3-fluorobenzyl)-2-methylpiperazine-1-carbonyl)phenyl)quinoline-8-sulfonamide] | 100 to 500
C[C@H]1CN(CC2CCOC2)CCN1C(=O)c1ccc(NS(=O)(=O)c2cccc3cccnc23)cc1 (stereo partly drawn) [Compound 139, N-(4-((2S)-2-methyl-4-((tetrahydrofuran-3-yl)methyl)piperazine-1-carbonyl)phenyl)quinoline-8-sulfonamide] | 100 to 500
C[C@H]1CN(CC2CCCC2)CCN1C(=O)c1ccc(NS(=O)(=O)c2cccc3cccnc23)cc1 [Compound 140, (S)—N-(4-(4-(cyclopentylmethyl)-2-methylpiperazine-1-carbonyl)phenyl)quinoline-8-sulfonamide] | < 100
C[C@H]1CN(Cc2c(F)ccc(F)c2F)CCN1C(=O)c1ccc(NS(=O)(=O)c2cccc3cccnc23)cc1 [Compound 141, (S)—N-(4-(2-methyl-4-(2,3,6-trifluorobenzyl)piperazine-1-carbonyl)phenyl)quinoline-8-sulfonamide] | 100 to 500
C[C@H]1CN(Cc2cc(F)cc(F)c2)CCN1C(=O)c1ccc(NS(=O)(=O)c2cccc3cccnc23)cc1 [Compound 142, (S)—N-(4-(4-(3,5-difluorobenzyl)-2-methylpiperazine-1-carbonyl)phenyl)quinoline-8-sulfonamide] | < 100
C[C@H]1CN(Cc2ccccc2F)CCN1C(=O)c1ccc(NS(=O)(=O)c2cccc3cccnc23)cc1 [Compound 143, (S)—N-(4-(4-(2-fluorobenzyl)-2-methylpiperazine-1-carbonyl)phenyl)quinoline-8-sulfonamide] | < 100
C[C@H]1CN(CC2CC2)CCN1C(=O)c1ccc(NS(=O)(=O)c2cccc3cccnc23)cc1 [Compound 144, (S)—N-(4-(4-(cyclopropylmethyl)-2-methylpiperazine-1-carbonyl)phenyl)quinoline-8-sulfonamide] | < 100
C[C@H]1CN(Cc2cc(F)c(F)cc2F)CCN1C(=O)c1ccc(NS(=O)(=O)c2cccc3cccnc23)cc1 [Compound 145, (S)—N-(4-(2-methyl-4-(2,4,5-trifluorobenzyl)piperazine-1-carbonyl)phenyl)quinoline-8-sulfonamide] | < 100
COc1cccc(CN2CCN(C(=O)c3ccc(NS(=O)(=O)c4cccc5cccnc45)cc3)[C@@H](C)C2)c1OC [Compound 146, (S)—N-(4-(4-(2,3-dimethoxybenzyl)-2-methylpiperazine-1-carbonyl)phenyl)quinoline-8-sulfonamide] | 1000 to 20000
C[C@@H]1CN(CC2CCCO2)CCN1C(=O)c1ccc(NS(=O)(=O)c2cccc3cccnc23)cc1 (stereo partly drawn) [Compound 147, N-(4-((2R)-2-methyl-4-((tetrahydrofuran-2-yl)methyl)piperazine-1-carbonyl)phenyl)quinoline-8-sulfonamide] | < 100
C[C@@H]1CN(Cc2cc(F)c(F)c(F)c2)CCN1C(=O)c1ccc(NS(=O)(=O)c2cccc3cccnc23)cc1 [Compound 149, (R)—N-(4-(2-methyl-4-(3,4,5-trifluorobenzyl)piperazine-1-carbonyl)phenyl)quinoline-8-sulfonamide] | < 100

Other lines, results leading:

AC50 [nM] | SMILES
< 100 | C[C@@H]1CN(Cc2ccccc2F)CCN1C(=O)c1ccc(NS(=O)(=O)c2cccc3cccnc23)cc1 [Compound 150, (R)—N-(4-(4-(2-fluorobenzyl)-2-methylpiperazine-1-carbonyl)phenyl)quinoline-8-sulfonamide]
< 100 | C[C@@H]1CN(CC2CCCCC2)CCN1C(=O)c1ccc(NS(=O)(=O)c2cccc3cccnc23)cc1 [Compound 151, (R)—N-(4-(4-(cyclohexylmethyl)-2-methylpiperazine-1-carbonyl)phenyl)quinoline-8-sulfonamide]
< 100 | C[C@H]1CN(Cc2ccc(F)cc2)CCN1C(=O)c1ccc(NS(=O)(=O)c2cccc3cccnc23)cc1 [Compound 152, (S)—N-(4-(4-(4-fluorobenzyl)-2-methylpiperazine-1-carbonyl)phenyl)quinoline-8-sulfonamide]
100 to 500 | C[C@H]1CN(CC2CCCCC2)CCN1C(=O)c1ccc(NS(=O)(=O)c2cccc3cccnc23)cc1 [Compound 153, (S)—N-(4-(4-(cyclohexylmethyl)-2-methylpiperazine-1-carbonyl)phenyl)quinoline-8-sulfonamide]
100 to 500 | C[C@H]1CN(Cc2ccc(F)c(F)c2F)CCN1C(=O)c1ccc(NS(=O)(=O)c2cccc3cccnc23)cc1 [Compound 154, (S)—N-(4-(2-methyl-4-(2,3,4-trifluorobenzyl)piperazine-1-carbonyl)phenyl)quinoline-8-sulfonamide]
< 100 | C[C@H]1CN(Cc2cc(F)c(F)c(F)c2)CCN1C(=O)c1ccc(NS(=O)(=O)c2cccc3cccnc23)cc1 [Compound 155, (S)—N-(4-(2-methyl-4-(3,4,5-trifluorobenzyl)piperazine-1-carbonyl)phenyl)quinoline-8-sulfonamide]
500 to 1000 | C[C@H]1CN(CC2CCCCO2)CCN1C(=O)c1ccc(NS(=O)(=O)c2cccc3cccnc23)cc1 (stereo partly drawn) [Compound 156, N-(4-((2S)-2-methyl-4-((tetrahydro-2H-pyran-2-yl)methyl)piperazine-1-carbonyl)phenyl)quinoline-8-sulfonamide]
100 to 500 | CC(c1ccc(Cl)c(F)c1)N1CCN(C(=O)c2ccc(NS(=O)(=O)c3cccc4cccnc34)cc2)[C@H](C)C1 (stereo partly drawn) [Compound 157, N-(4-((2R)-4-(1-(4-chloro-3-fluorophenyl)ethyl)-2-methylpiperazine-1-carbonyl)phenyl)quinoline-8-sulfonamide]
100 to 500 | CC(c1cc(F)c(F)c(F)c1)N1CCN(C(=O)c2ccc(NS(=O)(=O)c3cccc4cccnc34)cc2)[C@H](C)C1 (stereo partly drawn) [Compound 158, N-(4-((2R)-2-methyl-4-(1-(3,4,5-trifluorophenyl)ethyl)piperazine-1-carbonyl)phenyl)quinoline-8-sulfonamide]
100 to 500 | CC(c1c(F)cccc1F)N1CCN(C(=O)c2ccc(NS(=O)(=O)c3cccc4cccnc34)cc2)[C@H](C)C1 (stereo partly drawn) [Compound 159, N-(4-((2R)-4-(1-(2,6-difluorophenyl)ethyl)-2-methylpiperazine-1-carbonyl)phenyl)quinoline-8-sulfonamide]
< 100 | CC(c1ccc(F)cc1F)N1CCN(C(=O)c2ccc(NS(=O)(=O)c3cccc4cccnc34)cc2)[C@H](C)C1 (stereo partly drawn) [Compound 160, N-(4-((2R)-4-(1-(2,4-difluorophenyl)ethyl)-2-methylpiperazine-1-carbonyl)phenyl)quinoline-8-sulfonamide]
< 100 | CC[C@H]1CN(C(C)c2cc(F)cc(F)c2)CCN1C(=O)c1ccc(NS(=O)(=O)c2cccc3cccnc23)cc1 (stereo partly drawn) [Compound 161, N-(4-((2S)-4-(1-(3,5-difluorophenyl)ethyl)-2-ethylpiperazine-1-carbonyl)phenyl)quinoline-8-sulfonamide]
100 to 500 | CC[C@H]1CN(C(C)c2cc(F)c(F)c(F)c2)CCN1C(=O)c1ccc(NS(=O)(=O)c2cccc3cccnc23)cc1 (stereo partly drawn) [Compound 162, N-(4-((2S)-2-ethyl-4-(1-(3,4,5-trifluorophenyl)ethyl)piperazine-1-carbonyl)phenyl)quinoline-8-sulfonamide]
< 100 | C[C@@H]1CN(CC2CCCCO2)CCN1C(=O)c1ccc(NS(=O)(=O)c2cccc3cccnc23)cc1 (stereo partly drawn) [Compound 163, N-(4-((2R)-2-methyl-4-((tetrahydro-2H-pyran-2-yl)methyl)piperazine-1-carbonyl)phenyl)quinoline-8-sulfonamide]
100 to 500 | C[C@H]1CN(Cc2c(F)cc(F)cc2F)CCN1C(=O)c1ccc(NS(=O)(=O)c2cccc3cccnc23)cc1 [Compound 164, (S)—N-(4-(2-methyl-4-(2,4,6-trifluorobenzyl)piperazine-1-carbonyl)phenyl)quinoline-8-sulfonamide]
< 100 | O=C(c1ccc(NS(=O)(=O)c2cccc3cccnc23)cc1)N1CCN(Cc2ccc(F)cc2)C[C@@H]1c1ccccc1 [Compound 165]
100 to 500 | C[C@H]1CN(C(=O)O[C@@H]2CCOC2)CCN1C(=O)c1ccc(NS(=O)(=O)c2cccc3cccnc23)cc1 [Compound 166]
< 100 | CC(c1c(F)cc(F)cc1F)N1CCN(C(=O)c2ccc(NS(=O)(=O)c3cccc4cccnc34)cc2)[C@H](C)C1 (stereo partly drawn) [Compound 167]
100 to 500 | CC(c1cc(F)c(F)cc1F)N1CCN(C(=O)c2ccc(NS(=O)(=O)c3cccc4cccnc34)cc2)[C@H](C)C1 (stereo partly drawn) [Compound 168]
